Assay results published in PubChem BioAssay (NCI).
Where “and” joins values, the source holds several entries; their conditions need not be identical. Equal entries are not always repeated.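 Five concentrations, 48 hours, 96-well plates. Here, GI50 denotes the concentration required for 50% inhibition of growth. TGI is the concentration that stops growth completely.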

Tests used:
Test in all cases: inhibition of tumour cell growth, NCI panel, 48 h
MDA-MB-435 = tested on: MDA-MB-435
SNB-19 CNS = tested on: SNB-19 CNS
DU-145 prostate = tested on: DU-145 prostate
T-47D breast = tested on: T-47D breast
SF-295 CNS = tested on: SF-295 CNS
EKVX NSCLC = tested on: EKVX NSCLC
SK-MEL-28 melanoma = tested on: SK-MEL-28 melanoma
SW-620 colon = tested on: SW-620 colon
UACC-257 melanoma = tested on: UACC-257 melanoma
OVCAR-8 ovarian = tested on: OVCAR-8 ovarian
OVCAR-3 ovarian = tested on: OVCAR-3 ovarian
NCI-H460 lung = tested on: NCI-H460 lung
SN12C renal = tested on: SN12C renal
IGROV1 ovarian = tested on: IGROV1 ovarian
OVCAR-4 ovarian = tested on: OVCAR-4 ovarian
NCI-H226 lung = tested on: NCI-H226 lung
SK-MEL-5 melanoma = tested on: SK-MEL-5 melanoma
TK-10 renal = tested on: TK-10 renal

| Compound | TGI (MDA-MB-435) [µM] | TGI (SNB-19 CNS) [µM] | TGI (DU-145 prostate) [µM] | TGI (T-47D breast) [µM] | TGI (SF-295 CNS) [µM] | TGI (EKVX NSCLC) [µM] | TGI (SK-MEL-28 melanoma) [µM] | TGI (SW-620 colon) [µM] | TGI (UACC-257 melanoma) [µM] | TGI (OVCAR-8 ovarian) [µM] | TGI (OVCAR-3 ovarian) [µM] | TGI (NCI-H460 lung) [µM] | TGI (SN12C renal) [µM] | TGI (IGROV1 ovarian) [µM] | TGI (OVCAR-4 ovarian) [µM] | TGI (NCI-H226 lung) [µM] | TGI (SK-MEL-5 melanoma) [µM] | TGI (TK-10 renal) [µM] | GI50 (EKVX NSCLC) | GI50 (OVCAR-4 ovarian) |
| --- | --- | --- | --- | --- | --- | --- | --- | --- | --- | --- | --- | --- | --- | --- | --- | --- | --- | --- | --- | --- |
| CN1CCN(c2ccc3[nH]c(C4=C(O)C(=O)[C@@H]5C(=C4O)N=C(CO)N5C)nc3n2)CC1 | > 100 | > 100 | > 100 | > 100 | > 100 | > 100 | > 100 | > 100 | > 100 | > 100 | > 100 | > 100 | > 100 | > 100 | > 100 | > 100 | – | – | – | – |
| c1ccc(-c2cc(-c3ccncc3)cc(-c3ccncc3)n2)cc1 | > 100 | > 100 | > 100 | > 100 | > 100 | > 100 | > 100 | > 100 | > 100 | > 100 | > 100 | – | > 100 | > 100 | > 100 | > 100 | > 100 | > 100 | – | – |
| COC(=O)[C@]1(C)CCC[C@]2(C)[C@@H](CCC(=O)C(C)C)[C@]3(C=O)O[C@@H]3C[C@H]21 | 99.6 | > 100 | > 100 | 95.7 | > 100 | > 100 | > 100 | > 100 | > 100 | > 100 | > 100 | > 100 | > 100 | – | 87.3 | > 100 | > 100 | > 100 | – | – |
| c1ccc2nn(C3CCCO3)nc2c1 (stereo not given) | > 100 | – | > 100 | > 100 | > 100 | > 100 | – | – | > 100 | > 100 | > 100 | > 100 | > 100 | > 100 | > 100 | > 100 | > 100 | > 100 | – | – |
| CN1CC=C(c2cccn2C)CC1 | > 100 | > 100 | > 100 | > 100 | > 100 | > 100 | > 100 | > 100 | > 100 | > 100 | > 100 | – | > 100 | > 100 | > 100 | > 100 | > 100 | > 100 | – | – |
| CC(C)COP(C)(=O)C(N)(C(F)(F)F)C(F)(F)F (stereo not given) | > 100 | – | > 100 | > 100 | > 100 | > 100 | > 100 | > 100 | > 100 | > 100 | > 100 | – | > 100 | > 100 | > 100 | > 100 | > 100 | > 100 | – | – |
| CC(=O)O[C@H]1CC[C@@]2(C)C(=CC[C@@H]3[C@@H]2CC[C@](C)(c2nnc(C)o2)[C@H]3CC#N)C1 | > 100 | > 100 | > 100 | > 100 | > 100 | > 100 | – | > 100 | > 100 | > 100 | > 100 | – | > 100 | > 100 | > 100 | > 100 | > 100 | > 100 | – | – |
| CCOC(=O)C1(C#N)C(C#N)(C#N)C1(C#N)C#N | > 100 | > 100 | > 100 | > 100 | > 100 | > 100 | > 100 | > 100 | > 100 | > 100 | – | > 100 | > 100 | > 100 | > 100 | > 100 | > 100 | > 100 | – | – |
| Fc1cccc(C2SCc3nc4cc5ccccc5cc4n32)c1 (stereo not given) | > 100 | > 100 | > 100 | > 100 | > 100 | > 100 | > 100 | > 100 | > 100 | > 100 | > 100 | – | > 100 | > 100 | > 100 | > 100 | – | > 100 | – | – |
| CCCCCCCc1cscc1-c1cscc1Br | > 100 | > 100 | > 100 | 88.3 | 79.8 | > 100 | > 100 | > 100 | > 100 | > 100 | – | > 100 | > 100 | > 100 | > 100 | > 100 | > 100 | > 100 | – | – |
| Nc1nc(N)c2ncn(-c3ccccc3)c2n1 | > 100 | > 100 | > 100 | > 100 | > 100 | > 100 | > 100 | > 100 | > 100 | > 100 | > 100 | – | > 100 | > 100 | > 100 | > 100 | > 100 | > 100 | 43.3 µM and 89.6 µM | 21.8 µM and > 100 µM |
| S=C(Nc1ccc2c(c1)oc1ccccc12)c1cccs1 | > 100 | > 100 | > 100 | > 100 | > 100 | > 100 | > 100 | > 100 | > 100 | > 100 | > 100 | – | > 100 | > 100 | > 100 | > 100 | > 100 | > 100 | – | – |
